Assay results as given in US20240218242A1, “COMPOUND, FLUORESCENT DYE, KIT, AND METHOD FOR DETECTING CELLS” (NATIONAL UNIVERSITY CORPORATION KOCHI UNIVERSITY, priority 2021, published 2024).

Columns and labels:
[1] = Evaluation of light stability (fluorescence intensity over time under UV excitation); type: physicochemical; conditions: 3000 seconds after excitation by UV irradiation; toluene; 5 μM; excitation 378 nm; detection 483 nm
Procedure: The light stability of the compound A obtained in Example 1 was evaluated.
The light stability of the compound A and that of a commercially available solvatochromic dye Laurdan were compared (solvent: toluene; each dye concentration: 5 μM; excitation wavelength: 378 nm; detection wavelength: 483 nm). Laurdan is a compound with a CAS number of 74515-25-6. The fluorescence spectrum measurement was carried out using the same instrument as that used in Example 2.

[2] = Photophysical properties (absorption spectrum, fluorescence spectrum, fluorescence quantum yield) in organic solvents; type: physicochemical; conditions: 5 μM
Procedure: The absorption spectrum and fluorescence spectrum in organic solvents of the compound A obtained in Example 1 were measured.
(§1) The absorption spectrum and the fluorescence spectrum were measured using a UV-Visible/NIR spectrophotometer (V-670 manufactured by JASCO Corporation) and a spectrofluorometer (FP6600 manufactured by JASCO Corporation), respectively. The fluorescence quantum yield was measured using an absolute PL quantum yield spectrometer (Hamamatsu Photonics K.K.: C 9920-02V). The concentration of the compound A was 5 μM for each solvent. For solvent species, toluene, dichloromethane, DMSO, and ethanol were used.
The absorption spectrum and fluorescence spectrum in organic solvents of the compound B obtained in Example 8 were measured.
as §1, with “Corporation), respectively, in the same manner as in Example 2.” for “Corporation), respectively.”, “compound B” for “compound A”
The absorption spectrum and fluorescence spectrum in organic solvents of the compound C obtained in Example 10 were measured.
as §1, with “Corporation), respectively, in the same manner as in Example 2.” for “Corporation), respectively.”, “compound C” for “compound A”

[3] = Fluorescence spectrum measurement in lipid membrane (liposome); type: physicochemical; conditions: compound 2 μM, lipid 200 μM
Procedure: The fluorescence spectrum of the compound A obtained in Example 1 in a lipid membrane (liposome) was measured. More specifically, the fluorescence spectrum of the compound A in a liposome composed of 1,2-dioleoyl-sn-glycero-3-phosphocholine (DOPC) and sphingomyelin (SM)/cholesterol (Chol) was measured (compound A concentration: 2 μM, lipid concentration: 200 μM). The fluorescence spectrum measurement was carried out using the same instrument as that used in Example 2.

[4] = test system: human prostate cancer cells (PC3); assay: Confocal fluorescence imaging of stained cells; type: cell-based; conditions: 500 nM, 30 minutes at room temperature; excitation 405 nm; green (490-590 nm) and red (655-755 nm) channels
Procedure: Fluorescence imaging of cells was performed using the compound A obtained in Example 1. More specifically, confocal fluorescence imaging of human prostate cancer cells (PC3) stained with the compound A of the Example was performed (compound A concentration: 500 nM; excitation wavelength: 405 nm).
For microscopic observation, a confocal scanning laser microscope (manufactured by Olympus Corporation, FV1000-D) was used. In the measurement, fluorescence was detected in a green (490-590 nm) channel and a red (655-755 nm) channel using a 405 nm laser light source.
As the human prostate cancer cells used for the observation, cultured cells were used. The compound A (500 nM) was added to the cultured cells, and the mixture was allowed to stand at room temperature for 30 minutes, and then imaging was performed.

[5] = test system: human keratinocyte K16 (P4); assay: Toxicity evaluation (MTT test); type: cell-based; conditions: 100 μM, 24 hours
Procedure: The toxicity of fluorescence imaging of cells using the compound A obtained in Example 1 was evaluated. More specifically, the toxicity evaluation (MTT test) of the compound A to human keratinocyte K16 (P4) was performed. As a toxicity evaluation procedure, first, a medium containing the compound A at a maximum concentration of 100 μM (maximum DMSO concentration=0.5% v/v) was added to cells to prepare a 2-fold dilution series. After 24 hours, the medium was discarded and an MTT reagent ([…]) was added. After 3 hours, a 10% SDS reagent was added to the cells, and the absorbance at 570 nm was measured the next day.

[6] = test system: human skin tissue (frozen tissue); assay: Two-photon fluorescence imaging of stained human skin tissue; conditions: 10 μM; excitation 960 nm; in combination with clearing reagent (LUCID)
Procedure: Human skin tissue (frozen tissue) imaging was performed using the compound A obtained in Example 1. More specifically, two-photon fluorescence imaging of human skin tissues (frozen tissues) stained with the compound A of the Example was performed (compound A concentration: 10 μM, excitation wavelength: 960 nm; a clearing reagent (LUCID) was used in combination.).
For microscopy, a two-photon microscope A1R MP+(NIKON) was used. In the measurement, 960 nm was used as a laser light source for excitation for the compound A. Scanning was performed to a depth of 100 μm of the sample. The three-dimensional reconstructed image is obtained by processing the obtained data with attached software.
Human skin tissues were embedded in paraffin and then cut out to prepare tissue sections. The preparation of the sections (thickness: 5 μm) was performed by the procedure usually performed in histopathological examination. For staining with the compound A dye, deparaffinization was performed by a conventional method, and then staining was performed by immersion in the aforementioned dye at room temperature for several days to one week. In practice, the tissues were sufficiently stained by immersion in the dye at room temperature for 2 to 3 days.

Q: For `CCCCCCCCCCCC(=O)c1ccc2cc(N(C)C)ccc2c1` [Laurdan, reference compound], which “Fluorescence intensity (light stability)” value [1] is on record?
A: ≤ 0.6

Q: For `CCCC(=O)/C=C/c1ccc2ccc3c(N4CCCCC4)ccc4ccc1c2c43` [compound A], which Fluorescence quantum yield ([2]; DCM) is on record?
A: 86%

Q: And the Maximum absorption wavelength ([2]; DCM)?
A: 427 nm

Q: What about the Maximum fluorescence wavelength ([2]; DCM) of the same compound?
A: 615 nm

Q: What about the Fluorescence quantum yield ([2]; DMSO) of the same compound?
A: 79%

Q: What about the Maximum absorption wavelength ([2]; DMSO) of the same compound?
A: 429 nm

Q: And the Maximum fluorescence wavelength ([2]; DMSO)?
A: 647 nm

Q: And the Fluorescence quantum yield ([2]; EtOH)?
A: 20%

Q: And the Maximum absorption wavelength ([2]; EtOH)?
A: 427 nm

Q: And the Maximum fluorescence wavelength ([2]; EtOH)?
A: 691 nm

Q: And the Fluorescence quantum yield ([2]; Toluene)?
A: 82%

Q: And the Maximum absorption wavelength ([2]; Toluene)?
A: 424 nm

Q: What about the Maximum fluorescence wavelength ([2]; Toluene) of the same compound?
A: 546 nm

Q: What about the Fluorescence solvatochromism ([2]; toluene, dichloromethane, DMSO, ethanol) of the same compound?
A: fluorescence solvatochromism sensitive to solvent polarity was observed

Q: What about the “Fluorescence intensity (light stability)” value [1] of the same compound?
A: the fluorescence intensity was maintained as it was

Q: What about the Fluorescence quantum yield ([3]; DOPC liposome) of the same compound?
A: 37%

Q: And the Maximum fluorescence wavelength ([3]; DOPC liposome)?
A: 603 nm

Q: What about the Fluorescence quantum yield ([3]; SM/Chol liposome) of the same compound?
A: 72%

Q: And the Maximum fluorescence wavelength ([3]; SM/Chol liposome)?
A: 577 nm

Q: What about the “Fluorescence in cell membrane (plasma membrane) and oil droplets (lipid droplet)” value [4] of the same compound?
A: strong fluorescence was observed in the green channel

Q: And the cell viability [5]?
A: 93.9%

Q: And the “Staining of human skin tissue” value [6]?
A: capable of strongly staining the membrane of each cell constituting the human skin tissue
